Results from ChEMBL document CHEMBL4020799, “Design, synthesis of novel furan appended benzothiazepine derivatives and in vitro biological evaluation as potent VRV-PL-8a and H+/K+ ATPase inhibitors” (Bioorg Med Chem Lett, 2017).
Calls of active or inactive are those of the source. The rule behind the calls is not given here.

Key:
[1] = Inhibition of hydrogen potassium ATPase in pig stomach mucosal membrane assessed as reduction in liberated inorganic phosphate level after 15 mins by colorimetric method; type: cell membranes, Sus scrofa
[2] = molecular target: T1, Basic phospholipase A2 VRV-PL-VIIIa (Daboia russelii, UniProt P59071); experiment: (§1) Inhibition of Vipera russelii sPLA2 pre-incubated for 5 mins before DMPC substrate addition and measured after 45 mins
T1 sequence (P59071 whole entry): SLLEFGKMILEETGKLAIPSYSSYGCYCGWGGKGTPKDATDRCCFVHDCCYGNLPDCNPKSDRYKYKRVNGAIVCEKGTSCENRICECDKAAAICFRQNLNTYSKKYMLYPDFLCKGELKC

[3] = molecular target: T2, Basic phospholipase A2 VRV-PL-VIIIa (Daboia russelii) (UniProt P59071); experiment: as §1
T2 sequence (whole entry): T1 sequence (P59071 whole entry)

[4] = molecular target: T2, Basic phospholipase A2 VRV-PL-VIIIa (Daboia russelii); experiment: Inhibition of Vipera russelii venom sPLA2 at 11.01 uM in presence of fixed concentrations of DMPC substrate and 0 to 12 uM of calcium measured after 5 mins
[5] = molecular target: T2, Basic phospholipase A2 VRV-PL-VIIIa (Daboia russelii); experiment: Inhibition of Vipera russelii venom sPLA2 at 11.01 uM in presence of fixed concentration of calcium and 0 to 400 uM of DMPC substrate measured after 5 mins
[6] = molecular target: T2, Basic phospholipase A2 VRV-PL-VIIIa (Daboia russelii); experiment: Inhibition of Vipera russelii venom sPLA2-induced hemolytic activity in human erythrocytes assessed as reduction hemoglobin release in presence of egg yolk preincubated for 5 mins followed by erythrocyte addition by spectrophotometric analysis; type: cell-based
[7] = molecular target: T2, Basic phospholipase A2 VRV-PL-VIIIa (Daboia russelii); experiment: Inhibition of Vipera russelii venom sPLA2 assessed as remaining enzyme activity level at 11.01 uM in presence of fixed concentration of calcium and 400 uM of DMPC substrate measured after 5 mins

For `c1coc(C2=Nc3ccccc3SC(c3ccc4c(c3)OCO4)C2)c1` (stereo not drawn), the IC50 [1] was 5.14 µM, the IC50 [2] was 25.1 µM and the inhibition [3] was “Dose-dependent effect”.
With `Brc1ccc(C2CC(c3ccco3)=Nc3ccccc3S2)cc1` (stereo not drawn) the IC50 [1] was 2.11 µM, the IC50 [2] was 24.1 µM and the inhibition [3] was “Dose-dependent effect”.
In the case of `COc1cc(C2CC(c3ccco3)=Nc3ccccc3S2)ccc1O` (stereo not drawn), the IC50 [1] is reported as 4.39 µM, the IC50 [2] is reported as 43.4 µM and the inhibition [3] is reported as “Dose-dependent effect”.
For `Fc1ccc(C2CC(c3ccco3)=Nc3ccccc3S2)cc1` (stereo not drawn), the IC50 [1] was 5.1 µM, the IC50 [2] was 25.2 µM and the inhibition [3] was “Dose-dependent effect”.
For `O=[N+]([O-])c1ccc(C2CC(c3ccco3)=Nc3ccccc3S2)cc1` (stereo not drawn), the IC50 [1] was 3.73 µM, the IC50 [2] was 56.9 µM and the inhibition [3] was “Dose-dependent effect”.
For `c1ccc(C2CC(c3ccco3)=Nc3ccccc3S2)cc1` (stereo not drawn), the IC50 [1] was 8.01 µM, the IC50 [2] was 12 µM and the inhibition [3] was “Dose-dependent effect”.
For `COc1ccc(C2CC(c3ccco3)=Nc3ccccc3S2)cc1` (stereo not drawn), the inhibition [4] was “Active”, the inhibition [5] was “Active” and the inhibition [6] was “Dose-dependent effect”. It also gave an Activity [7] of 51%, an IC50 [1] of 1.99 µM and an IC50 [2] of 11 µM. For the same molecule, the inhibition [3] was “Dose-dependent effect”.
For `Clc1ccc(C2CC(c3ccco3)=Nc3ccccc3S2)cc1` (stereo not drawn), the IC50 [1] was 5.28 µM, the IC50 [2] was 19.3 µM and the inhibition [3] was “Dose-dependent effect”.
